Laboratory results from ChEMBL document CHEMBL3507680, “University of Dundee, Gates Library screen for HepG2 cell viability”.

Assay: Human HepG2 cell viability assay in 384 well format
Assay type: toxicity, cell-based
Set-up: dose 125 nL, time 70.5 hour; concentration not given beside the values
Settings: HepG2 cells, read-out: Inhibition

Row | Compound | cytotoxicity at 70.5 h [%]
1 | O=C(NCCN1CCC(c2cccs2)CC1)Nc1cccs1 | -3.14
2 | O=C(O)Cn1ccc(=O)c2ccccc21 | -14.9
3 | Cc1nc(S(=O)(=O)N2CCSCC2)cn1C | -2.15
4 | CC(C)C1CN(S(=O)(=O)c2ccc(C#N)cc2)CCS1 (stereo unspecified) | -11.1
5 | O=C(NCc1ccccc1)C1CN(c2ccccn2)CCO1 (stereo unspecified) | -15.5
6 | Cc1cc(C)nc(N2CCC(c3ccnc(N(C)C)n3)CC2)n1 | -3.9
7 | CCn1cc(CNC(=O)C(C)C)cn1 | 0.0963
8 | Cc1nc(C)c(C(=O)N2CCc3c(Cl)cccc32)o1 | 1.38
9 | Cc1nc(CN2CCC3(CCN(Cc4cnn(C)c4)CC3)C2=O)cs1 | 10.4
10 | c1ccc(COC[C@@H]2CCC[C@]23CN(Cc2nccs2)CCO3)nc1 | 5.78
11 | CN(C)c1ncc(I)c(C2CCCN2S(C)(=O)=O)n1 (stereo unspecified) | 44.4
12 | Cc1nn(C)c(C)c1C(=O)NCc1cccnc1OC1CCCC1 | -5.73
13 | Cc1ccc(C(=O)Nc2nc(C)no2)cc1 | -4.79
14 | CNC(=O)COc1ccc(-c2ccccc2)nc1 | -7.98
15 | CN1CCN(Cc2noc(CCc3nc(-c4ccccc4)no3)n2)CC1 | -6.63
16 | O=C(CCc1ccccc1)N1C[C@@H]2CN(Cc3ccoc3)CCO[C@@H]2C1 | -11.8
17 | COc1ccc(CNC(=O)c2nn(C)c3c2CS(=O)(=O)CC3)cc1OC | 1.56
18 | CSCc1ccc(N2CCC(C(O)Cc3ccccc3)CC2)nc1 (stereo unspecified) | 26.6
19 | Cc1oncc1C(=O)N1CCC2(C1)CN(c1cccnc1)C(=O)CN2C (stereo unspecified) | -0.201
20 | CC(C)NC(=O)N1CCCC2(CCN(c3ccccc3)C2=O)C1 (stereo unspecified) | -7.73
21 | O=C(C(c1ccccc1)S(=O)(=O)c1ccccn1)N1CCCC1 (stereo unspecified) | -2.5
22 | CCCSc1ncc(-c2nccn2CCC(N)=O)cn1 | -13.6
23 | O=C1CC(NCc2ccncc2)CN1Cc1cccc(F)c1 (stereo unspecified) | 1.94

Row | Compound | cytotoxicity at 70.5 h [%]
24 | Cc1ccc(S(=O)(=O)N2CCN(CCCn3ccnc3)CC2)cc1 | -1.75
25 | CC(C)(C)OC(=O)NC1CCC(NC(=O)c2ccc[nH]2)CC1 (stereo unspecified) | -6.62
26 | Fc1ccc(-c2nc(CN3CCCC3Cn3cncn3)co2)cc1 (stereo unspecified) | 17.6
27 | CC(=O)c1cccc(NC(=O)Cn2nc(-c3cccs3)oc2=O)c1 | 10.5
28 | Cc1cc(C)nc(C2CCN(C(=O)CO)CC2)n1 | -6.07
29 | COC(=O)c1cc(C(=O)N2CCCC(C)C2)n(-c2ccccc2)n1 (stereo unspecified) | -10.2
30 | Cc1ccc(C2(CN3CCN(Cc4cn(C)nc4C)CC3)CC2)cc1 | -11.3
31 | CCn1ncc2c1CCCC2NCc1cscn1 (stereo unspecified) | -5.01
32 | Cn1cc(Cl)cc1C(=O)N1CCN(CCc2cccs2)CC1 | -4.15
33 | O=C(c1ccoc1)N1CC[C@H]2C[C@@H](c3ccncn3)O[C@@H]2C1 | 4.08
34 | COC(CNC(=O)c1cn(C)nn1)c1ccccc1C (stereo unspecified) | -3.6
35 | COc1ccc(OCCNC(=O)c2ccc3c(=O)[nH][nH]c(=O)c3c2)cc1 | -0.259
36 | CC(C)(C)c1coc([C@@H]2COCCN2Cc2cnc3ccccc3c2)n1 | 0.0852
37 | CCN(CC)Cc1cc(=O)n2c(n1)CN(S(=O)(=O)C1CC1)CCC2 | -7.27
38 | Cc1cc(=O)n2ncnc2n1CC(O)c1cc(F)ccc1F (stereo unspecified) | -11.1
39 | N#Cc1cccc(N2CCOC3(CNCCOC3)C2)n1 (stereo unspecified) | 15.5
40 | O=C(NCC1CCS(=O)(=O)C1)c1ccc(NC(=O)c2ccco2)cc1 (stereo unspecified) | 26.8
41 | CC(C)C(=O)N1CCC2(CCN2CC2CC2)C1 (stereo unspecified) | -4.62
42 | NCc1cn(-c2ccccc2C(=O)NCc2ccccc2Cl)cn1 | -8.27
43 | CC(=O)N1CCC1c1cc(N2CCSCC2)nc(C)n1 (stereo unspecified) | -1.98
44 | CC(=O)N1CCCN(C(=O)Nc2ccccc2N2CCOC2=O)CC1 | -4.99
45 | O=C(CC1CC1)N1CCC2(CC1)CN(Cc1cccnc1)C(=O)CO2 | -12.2
46 | CCCn1ncc(C(=O)N2CCCC(OCc3ccccn3)C2)c1C (stereo unspecified) | -4.73
